The values that follow come from US20240321457A1, “SYSTEMS FOR AND METHODS OF TREATMENT SELECTION” (THE REGENTS OF THE UNIVERSITY OF CALIFORNIA, priority 2020, published 2024).

Experiment [1] has as its system Gαi. In words: NanoBiT Gαi1 dissociation assay (split luciferase). Type of experiment: cell-based. The note with it: 60 minutes. The method, then: The NanoBiT G-protein dissociation assay, based on a split-luciferase system, was performed as previously described with some modifications (Inoue et al., 2019). All DNA constructs were provided by Dr. Asuka Inoue (Tohoku University, Japan). NanoBiT plasmids (pCAGGS) include Gαi1-LgBiT, Gβ1-native, and SmBiT-Gγ2 (CAAX C68S mutant). Gαi-DREADD (pcDNA3.1) was used as a synthetic Gαi-coupled GPCR. Briefly, CAL-33 and HET-1A cells were seeded on poly-D-lysine coated (Sigma, Cat #P7280), opaque, white 96-well plates (Falcon Cat #353296). The following day cells were transfected with NanoBiT and receptor plasmids using Lipofectamine 3000 (ThermoFisher Scientific, Cat #L3000008) according to manufacturer recommendations for a 12-well scale (10 μL transfection mix to each well). The NanoBiT plasmids were mixed at a ratio of 100 ng Gαi1-LgBiT, 500 ng Gβ1, 500 ng SmBiT-Gγ2, and 200 ng of receptor if needed. For gene knockdown experiments, 10 pmol of pooled siControl (Dharmacon, Cat #D-001810-10-20), siFGFR3 (Mission siRNA, Cat #SIHK0780, SIHK0781, SIHK0782), or siDaple (Dharmacon, Cat #L-033364-01-0005) was included in the plasmid mix. Media was changed the following day. Two days after transfection, media was aspirated from each well and washed once with HBSS. Cells were incubated in HBSS with a final concentration of 5 μM native coelenterazine (Biotium, Cat #10110-1) for 30 minutes at room temperature protected from light. Basal luminescence was read and ligand prepared for final concentrations of 10 ng/mL human bFGF (Roche Cat #11123149001) and 10 μM clozapine-N-oxide (Cayman Chemical, Cat #NC1044836). After ligand addition, luminescence was read in kinetic loops (each well ˜every 30 seconds) for 60 minutes total (Tecan Spark). Raw luminescent values were normalized to the corresponding basal value for each well and subsequently to the mean vehicle ratio (raw/basal) at time 0. Significance was calculated using a one-way ANOVA at the 60 minute time point.
To test this idea, a split luciferase assay (Gαi NanoBiT) was used, in which signal is lost upon activation of Gαi and dissociation from Gβγ (FIG. 15C and FIG. 16A). As a control, an engineered Designer Receptor Exclusively Activated by Designer Drugs (DREADD) receptor was first transfected, and the resulting cell population stimulated with the DREADD ligand, clozapine-N-oxide (CNO).
Referring to FIG. 15C, NanoBiT biosensor measures Gαi activation through dissociation of the luciferase split between Gα and Gβγ. CNO mediates canonical GPCR signaling through the synthetic Gαi-coupled DREADD receptor. FGF mediates HNSCC-specific signaling through FGFR3 and Daple.

Experiment [2] deals with solid tumors with FGFR mRNA overexpression. As to conditions: phase I trials; cited from earlier work.
Experiment [3] has as its system PAK1/2 phosphorylation. In words: PAK1/2 phosphorylation immunoblot after FGF stimulation. Type of experiment: cell-based. The note with it: FGF stimulation 0, 5, 10, 30, 60 minutes. The method, then:
(§1) CAL-33 and HET-1A cells were seeded on poly-D-lysine-coated 6-well plates. Cells were transfected with siRNA using Lipofectamine RNAiMAX (Thermo Fisher Scientific, Cat #100014472) according to manufacturer recommendations. After overnight serum starvation, cells were stimulated with vehicle, 10 ng/mL bFGF, or 10 μM CNO. Cells were washed once with PBS and lysed in RIPA buffer (50 mM Tris-HCl pH 6.8, 150 mM NaCl, 1% NP-40, 0.5% sodium deoxycholate, 0.1% SDS) with protease and phosphatase inhibitors (Bimake, Cat #B14001, B15001-A/B). Lysates were briefly sonicated and cleared by centrifugation before boiling in Laemmli sample buffer (Bio-Rad Cat #1610747). After separation on 10% acrylamide gels and transfer to PVDF membranes, membranes were blocked with 2% BSA in TBST before incubating with antibodies. […]
Referring to FIG. 15G, PAK1/2 autophosphorylation was measured by immunoblot analysis over a time course of FGF stimulation (0, 5, 10, 30, 60 minutes) in CAL-33 and HET-1A cells.
(In general: Immunoblotting shows a protein as a band on a membrane.)

The test system of experiment [4] is CAL-33 cells. Description: Scratch migration assay. It counts as cell-based. As to conditions: fibronectin-plated CAL-33 cells; 10 ng/mL bFGF, 24 hours; versus vehicle. The procedure:
CAL-33 cells were seeded on 12-well plates coated with 10 μg/mL fibronectin in PBS (Sigma Aldrich, Cat #F2006-1MG). Once cells reached confluence, a vertical scratch was made with a pipette tip and washed well with PBS before adding serum-free media. Cells were stimulated with vehicle, 10 ng/mL bFGF, or 1% serum for 24 hours. Images were taken at the 0 and 24 hour time points (2× magnification) and the scratch area was quantified using ImageJ. Percent scratch closure was calculated for each well and significance assessed using a one-way ANOVA.
Referring to FIG. 15H, a vertical scratch was introduced to fibronectin-plated CAL-33 cells. Images were taken at 0 and 24 hours after FGF stimulation (scale bar=200 μm). (I) Quantification of replicate scratch closure assays from panel H (*P<0.05 when compared with the vehicle-treated group).

In experiment [5] the test system is ERK phosphorylation. Description: ERK phosphorylation immunoblot after FGF stimulation. The note with it: FGF 10 ng/mL, time course. Type of experiment: cell-based. The procedure: as §1
Referring to FIG. 16C, ERK phosphorylation over a time course was measured by immunoblotting in CAL-33 and HET-1A cells stimulated with FGF (10 ng/mL).

As to `C[N+]1([O-])CCN(C2=Nc3cc(Cl)ccc3Nc3ccccc32)CC1` [CNO, clozapine-N-oxide], the “Gαi activation (loss of luciferase signal)” value in experiment [1] (CAL-33 cells expressing Gαi NanoBiT and DREADD receptor, CNO 10 μM) was “Robust Gαi activation”; in experiment [1] (HET-1A cells expressing Gαi NanoBiT and DREADD receptor, CNO 10 μM), “Robust Gαi activation”.

On to `COCc1c(-c2cc3cc(C)cc(OC)c3s2)c2c(N)ncnn2c1CN1CCNC(=O)C1` [rogaratinib], for which, in experiment [2], the objective response rate is 67%.

In the case of “FGF: human bFGF (Roche), fibroblast growth factor used as ligand for stimulation”, the “phosphorylation of PAK1/2” value in experiment [3] (CAL-33 cells) was “results in downstream phosphorylation of PAK1/2”; in experiment [3] (HET-1A cells) it was “not observed”. In addition, the “Gαi activation (loss of luciferase signal)” value is “induce Gαi activation” in experiment [1] (CAL-33 cells, Gαi NanoBiT, FGF 10 ng/mL) and “no such activation occurred” in experiment [1] (HET-1A cells, Gαi NanoBiT, FGF 10 ng/mL). The “cell migration (scratch closure)” value in experiment [4] is “statistically significant increase”. Also, the ERK phosphorylation entry in experiment [5] (CAL-33 cells) and in experiment [5] (HET-1A cells) was “rapidly induced ERK phosphorylation” throughout.
